The text below walks through data of patent US20040242870A1, “Antiviral methods and compounds” (priority 2000, published 2004).

Where only a bound is given, the exact number is not on record here.

In data set [1] the test system is HIV-1 strain RoJo. The experiment in a line: PBMC time-of-addition assay (RT in cell-free supernatant at 6 days). The note with it: for increase in IC50 (loss in potency): 24 h pretreatment; for IC50: Human immunodeficiency virus 1, PBMC. In kind it is cell-based. How it is done: Peripheral blood monocular cells (PBMCs) were obtained from normal hepatitis and HIV-1 negative donors by ficoll hypaque gradient separation. The mononuclear cells were washed to remove residual separation media, counted, viability determined and resuspended in RPMI 1640 medium supplemented with 15 % FBS (heat inactivated), 2 mM L-glutamine, 100 U/mL penicillin, 100 μg/mL streptomycin, and 10 μg/mL gentamycin with 2 μg/mL phytohemagluttin (PHA) at 1×10^6 cells/mL. The cells were cultured for 48 to 72 h at 37° C., 5% CO2. Following incubation, cells were collected by centrifugation, washed and resuspended in RPMI 1640 supplemented with 15% FBS (heat inactivated), 2 mM L-glutamine, 100 U/mL penicillin, 100 μg/mL streptomycin, and 10 μg/mL gentamycin with 20 U/mL recombinant IL-2 (R & D Systems, Minneapolis, Minn.). IL-2 was included in the culture medium to maintain the cell division initiated by the PHA mitogenic stimulation, and promote optimal growing conditions for the PBMCs. The cultures were then maintained until use by ½ culture volume change with fresh IL-2 containing medium every 3 days.
(§1) Human peripheral blood mononuclear cells from a minimum of 2 donors, that have been blasted with PHA and IL-2, were counted, viability determined by Trypan Blue dye exclusion and mixed in equal ratios. Pooled donors were used to minimize the variability observed between individual donors which results from quantitative and qualitative differences in HIV infection and overall response to the PHA and IL-2 of primary lymphocyte populations. The cells were resuspended at 1×10^6 cells/mL in RPMI 1640 without phenol red supplemented with 15% Fetal Bovine Serum (heat inactivated), 2 mM L-glutamine, 100 U/mL penicillin, 100 μg/mL streptomycin, 10 μg/Ln gentamycin and IL-2 (20 U/mL, R&D Systems, Minneapolis, Minn.). Fifty microliters of cells were then distributed to the inner 60 wells of a 96 well round bottom microtiter culture plate in a standard format developed by the Infectious Disease Research department of Southern Research Institute. Each plate contains cell control wells (cells only), virus control wells (cells plus virus), and experimental wells (drug plus cells plus virus). Alternatively, cells were cultured in T25 cm^2 or T75 cm^2 tissue culture flasks at a starting density of 1×10^6 cells per ml. Serially diluted compounds were added to the microtiter plate or tissue culture flask followed by the appropriate pre-titered strain of HIV-1. For virus replication inhibition experiments the HIV-1 strain RoJo was used. This is a low passage presumable subtype B pediatric isolate with a syncytium inducing (SI) phenotype in MT-2 cells isolated by Southern Research Institute personnel. All samples were assayed in triplicate where possible with an accompanying determination of compound toxicity. The final volume per well in the microtiter plates was 200 μL. The final volume in the tissue culture flask varied depending upon experimental design and flask size. Assays were incubated for 6 days in a humidified atmosphere at 37° C., 5% CO2, after which supernatants were collected, for analysis of RT activity and cell viability by MTS dye reduction. Culture were also examined microscopically, any abnormalities noted, and in the case of tissue culture flasks cell counts and viability determined by Trypan Blue Dye exclusion.
Time-of-addition assays were performed with PBMCs in two ways. For both assays, PBMCs were isolated and cultured under the conditions as described above. Time-of-addition assays were carried out in either a tissue culture flask format (T-75 cm^2) or in microtiter wells. In both cases due to the lack of plastic adherence and heterogeneity of the PBMC population for susceptibility to infection, it was not possible to use complete removal of virus following a timed adsorption to synchronize the infection and limit the assay to a single round of infection. […]

Data set [2] has as its system PBMCs. Briefly: PBMC cytotoxicity in time-of-addition assay. Format: cell-based, Human.
From the text: as §1
Time-of-addition assays were performed with PBMCs in two ways. For both assays, PBMCs were isolated and cultured under the conditions as described above. Time-of-addition assays were carried out in either a tissue culture flask format (T-75 cm^2) or in microtiter wells. In both cases due to the lack of plastic adherence and heterogeneity of the PBMC population for susceptibility to infection, it was not possible to use complete removal of virus following a timed adsorption to synchronize the infection and limit the assay to a single round of infection. Therefore, serial washing by partial removal of the media was used to reduce the concentration of virus and compound (if required) in the assay. Compound addition in relationship to antiviral activity was either assessed over a short addition interval immediately before or after virus addition or for up to 72 h post infection. For all assays virus replication was assessed at 6 days of culture by determining RT expression in cell-free supernatants. In the tissue culture flask format cells were counted and Trypan Blue Dye exclusion used to monitor compound cytotoxicity. Cell viability in the 96 well microtiter plate format was determined by MTS dye reduction. AZT was used as a positive control.
At assay termination the assay plates were stained with the soluble tetrazolium-based dye MTS (CellTiter96® Reagent Promega) to determine cell viability and quantify compound toxicity. MTS is metabolized by the mitochondria enzymes of metabolically active cells to a soluble formazan product, allowing the rapid quantitative analysis cell viability and compound cytotoxicity. […] At termination of the assay 20 μL of MTS reagent was added per well and incubated for 4 h at 37° C. […]

The subject of data set [3] is PBMCs. The experiment in a line: PBMC viability by Trypan Blue dye exclusion. Format: cell-based, Human.
From the text: as §1
Experiments were conducted using flow cytometry to assess the effect of the IMG compounds and cannabidiol on induction of apoptosis. Briefly, compound-treated PBMCs were assayed for apoptosis using a BrdU methodology. Table 6 summarizes the effects of the IMG Compounds on cell cycle and cell viability by Trypan Blue Dye exclusion. Table 7 reduces the changes in the cell cycle to a ratio based upon the percent of cells in G2-G1. G2-G1 cells represent transition cells that are in either G2 or G1, that cannot be distinguished based upon DNA content by flow cytometry. […] This ratio cannot be used as a quantitative factor to measure fold-increases or decreases between population, but rather to access trends in the cell cycle.

The mark [4] stands for this setting: 4 h, −4 h pre (relative to infection).
Where [5] appears, read: pre-treat 0 h prior to infection.
The mark [6] stands for this setting: pre-treat 2 h prior to infection.
The mark [7] stands for this setting: pre-treat 4 h prior to infection.
[8] abbreviates: pre-treat 24 h prior to infection.
[9] abbreviates: −4 h pre (relative to infection).

The term IC50 denotes the concentration that inhibits the measured activity by half. As for `C=C(C)[C@@H]1CCC(C)=C[C@H]1c1c(O)cc(CCCCC)cc1O` [Cannabidiol, reference compound], the “loss of activity (potency)” value in data set [1] (2 h pre-treatment, listed as cannabidiol) is on record as “approximately 10 fold”. Also, the “regain of potency (decrease in IC50)” value is “activity at 2, regain 3.3-fold” in data set [1] (4 h pretreatment) and 3.3 fold in data set [1] (4 h pretreatment, listed as cannabidiol). In addition, the “increase in IC50 (loss in potency)” value is recorded as “at 4 h then a 17-fold” in data set [1] and 17 fold in data set [1] (listed as cannabidiol). In addition, the IC50 in data set [1] (setting [4]) is 12.1 µM; in data set [1] (6 h, 6 h post infection), 12.1 µM; in data set [1] (at infection), 13.8 µM; in data set [1] (setting [5]) it was 0.58 µM; in data set [1] (setting [6]), 5 µM; in data set [1] (setting [7]) it was 1.5 µM. The IC50 in data set [1] (setting [8]) was found to be 10.5 µM. For the same compound, the TC50 in data set [2] (6 h post infection), in data set [2] (at infection) and in data set [2] (setting [9]) was above 100 µM in each case. Besides, the “% Viable Cells” value stood at 94% in data set [3] (1 μM, HIV +); 85% in data set [3] (1 μM, HIV −); 55% in data set [3] (25 μM, HIV +); 86% in data set [3] (25 μM, HIV −); 61% in data set [3] (35 μM, HIV +); 61% in data set [3] (35 μM, HIV −).

Regarding `COc1cc(C(C)(C)CCCC(C)C)cc(OC)c1OC` [IG-07, 1-(1,1,5Trimethylhexyl)-3,4,5-trimethoxybenzene], in data set [1], the “increase in IC50 (loss in potency)” value is recorded as “approximately 2 fold”. For the same compound, the IC50 in data set [1] (setting [4]) is 39.5 µM; in data set [1] (6 h, 6 h post infection) it was 46.1 µM; in data set [1] (at infection), 67 µM; in data set [1] (setting [5]), 6.9 µM; in data set [1] (setting [6]) it was 6.1 µM; in data set [1] (setting [7]), 5.3 µM. In addition, the IC50 in data set [1] (setting [8]) came to 10.8 µM. The TC50 in data set [2] (6 h post infection), in data set [2] (at infection) and in data set [2] (setting [9]) was above 100 µM each time. Moreover, the “% Viable Cells” value in data set [3] (5 μM, HIV +) was found to be 94%; in data set [3] (5 μM, HIV −) it was 92%; in data set [3] (100 μM, HIV +), 55%; in data set [3] (100 μM, HIV −), 50%.

On to `CC(C)=CCCC1(C)CCc2c(O)cc(C(C)(C)CCCC(C)C)cc2O1` (stereo not drawn) [IG-08, 3,4-Dihydro-2-methyl-2-(4-methyl-3-pentenyl)-7-(1,1,5-trimethylhexyl)-2H-1-benzopyran-5-ol], for which, in data set [1] (4 h pretreatment), the “decrease in IC50” value is given as 4-fold decrease in. The IC50 in data set [1] (setting [4]) was determined as 6.2 µM; in data set [1] (6 h, 6 h post infection), 22.5 µM; in data set [1] (at infection), 15.7 µM; in data set [1] (setting [5]), 14.2 µM; in data set [1] (setting [6]) it was 10.4 µM; in data set [1] (setting [7]), 4.1 µM. In addition, in data set [1] (setting [8]), the half-inhibitory concentration (IC50) came out at 11.9 µM. Moreover, the TC50 in data set [2] (6 h post infection), in data set [2] (at infection) and in data set [2] (setting [9]) was above 100 µM throughout. Also, the “% Viable Cells” value in data set [3] (15 μM, HIV +) worked out at 94%; in data set [3] (15 μM, HIV −), 89%; in data set [3] (30 μM, HIV +) it was 67%; in data set [3] (30 μM, HIV −), 62%.
